For data set [1], the target named is nAChRs comprised of α4 and β2 subunits (Rattus norvegicus, UniProt P09483+P12390). Briefly: In vitro inhibition of 3H-cytisine binding. The method, then:
The predominant subtype with high affinity for nicotine is comprised of α4 and β2 subunits. nAChRs of the latter type can selectively be labelled by the nicotine agonist ^3H-cytisine.
Tissue Preparation: Preparations are performed at 0-4° C. unless otherwise indicated. […] The homogenate is centrifuged at 27,000×g for 10 min. The supernatant is discarded and the pellet is resuspended in fresh buffer and centrifuged a second time. The final pellet is resuspended in fresh buffer (35 ml per g of original tissue) and used for binding assays.
Assay: Aliquots of 500 μl homogenate are added to 25 μl of test solution and 25 μl of ^3H-cytisine (1 nM, final concentration), mixed and incubated for 90 min at 2° C. Non-specific binding is determined using (−)-nicotine (100 μM, final concentration). After incubation the samples are added 5 ml of ice-cold buffer and poured directly onto Whatman GF/C glass fibre filters under suction and immediately washed with 2×5 ml ice-cold buffer. The amount of radioactivity on the filters is determined by conventional liquid scintillation counting. Specific binding is total binding minus non-specific binding.

Data set [2] concerns the target T1, neuronal nicotinic receptors (α4β2 subtype high affinity site) (Rattus norvegicus, UniProt P09483+P12390).
T1 construct: The forebrain (÷cerebellum) from a male Wistar rat (150-250 g) is homogenized; from tissue; host or cells: rat forebrain (without cerebellum) membrane homogenate
Kind of data set: In vitro inhibition of 3H-epibatidin binding. Here is the method: The high affinity binding site for ^3H-epibatidin is most certainly binding to the α4β2 subtype of nicotinic receptors. The identity of the low affinity site is still unknown; does it represent a second nicotinic receptor or a second site in the same receptor.
Tissue preparation: Preparations are performed at 0-4° C. unless otherwise indicated. The forebrain (÷cerebellum) from a male Wistar rat (150-250 g) is homogenized for 10-20 sec in 20 ml Tris, HCl (50 mM, pH 7.4) using an Ultra-Turrax homogenizer. The tissue suspension is centrifuged at 27,000×g for 10 min. The supernatant is discarded and the pellet is washed three times by centrifugation at 27,000×g for 10 min in 20 ml fresh buffer, and the final pellet is resuspended in fresh buffer (400 ml per g of original tissue) and used for binding assays.
Assay: Aliquots of 2.0 ml homogenate are added to 0.100 ml of test solution and 0.100 ml of ^3H-epibatidin (0.3 nM, final concentration), mixed and incubated for 60 min at room temperature. Non-specific binding is determined using (−)-nicotine (30 μM, final concentration). After incubation the samples are poured directly onto Whatman GF/C glass fibre filters (presoaked in 0.1% PEI for at least 20 min) under suction and immediately washed with 2×5 ml ice-cold buffer. The amount of radioactivity on the filters is determined by conventional liquid scintillation counting. Specific binding is total binding minus non-specific binding.

For data set [3], the target named is nAChR formed by the α7 subunit isoform (Rattus norvegicus, UniProt Q05941). Kind of data set: biochemical. Type of data set: binding.
For data set [4] the following is noted: relative to morphine; cited from earlier work.
Setting [5] is: rat forebrain homogenate, 0.3 nM 3H-epibatidin, 60 min at room temperature, read-out: 3H-epibatidin IC50.
The mark [6] stands for this setting: rat cerebral cortex homogenate, 1 nM 3H-cytisine, 90 min at 2° C., read-out: 3H-cytisine IC50.

Where two headings read alike, the source gives them in different places.

Chain of nAChR formed by the α7 subunit isoform (Q05941 23-502): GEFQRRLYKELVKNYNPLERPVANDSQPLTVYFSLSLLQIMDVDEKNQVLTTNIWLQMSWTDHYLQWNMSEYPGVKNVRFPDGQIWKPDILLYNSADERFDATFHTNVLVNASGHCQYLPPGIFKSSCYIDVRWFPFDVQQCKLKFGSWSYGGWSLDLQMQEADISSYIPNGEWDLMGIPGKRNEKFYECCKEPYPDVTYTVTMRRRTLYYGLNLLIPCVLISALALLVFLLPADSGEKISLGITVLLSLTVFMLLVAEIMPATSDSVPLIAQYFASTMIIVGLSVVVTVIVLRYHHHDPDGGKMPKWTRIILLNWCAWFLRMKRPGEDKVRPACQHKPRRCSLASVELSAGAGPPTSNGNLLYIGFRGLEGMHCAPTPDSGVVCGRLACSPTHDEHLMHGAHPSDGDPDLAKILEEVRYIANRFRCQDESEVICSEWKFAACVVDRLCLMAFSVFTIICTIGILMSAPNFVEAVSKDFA
Chain of nAChRs comprised of α4 and β2 subunits (P09483 31-630): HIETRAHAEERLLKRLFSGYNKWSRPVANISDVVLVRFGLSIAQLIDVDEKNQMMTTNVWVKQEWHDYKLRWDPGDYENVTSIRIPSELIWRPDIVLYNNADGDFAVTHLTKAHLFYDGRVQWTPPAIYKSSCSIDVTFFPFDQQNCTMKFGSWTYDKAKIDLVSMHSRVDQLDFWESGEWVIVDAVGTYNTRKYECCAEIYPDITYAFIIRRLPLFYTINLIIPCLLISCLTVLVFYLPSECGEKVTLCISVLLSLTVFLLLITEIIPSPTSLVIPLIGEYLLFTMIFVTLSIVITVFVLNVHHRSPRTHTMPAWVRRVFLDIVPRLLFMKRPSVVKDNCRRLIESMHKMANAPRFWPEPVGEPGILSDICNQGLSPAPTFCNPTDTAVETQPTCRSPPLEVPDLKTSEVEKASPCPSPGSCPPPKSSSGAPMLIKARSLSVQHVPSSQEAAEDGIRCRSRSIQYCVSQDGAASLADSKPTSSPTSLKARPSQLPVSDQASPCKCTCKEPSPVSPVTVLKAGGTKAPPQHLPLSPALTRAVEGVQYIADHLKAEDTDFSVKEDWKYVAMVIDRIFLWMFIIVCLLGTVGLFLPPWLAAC
Chain of nAChRs comprised of α4 and β2 subunits (P12390 25-500): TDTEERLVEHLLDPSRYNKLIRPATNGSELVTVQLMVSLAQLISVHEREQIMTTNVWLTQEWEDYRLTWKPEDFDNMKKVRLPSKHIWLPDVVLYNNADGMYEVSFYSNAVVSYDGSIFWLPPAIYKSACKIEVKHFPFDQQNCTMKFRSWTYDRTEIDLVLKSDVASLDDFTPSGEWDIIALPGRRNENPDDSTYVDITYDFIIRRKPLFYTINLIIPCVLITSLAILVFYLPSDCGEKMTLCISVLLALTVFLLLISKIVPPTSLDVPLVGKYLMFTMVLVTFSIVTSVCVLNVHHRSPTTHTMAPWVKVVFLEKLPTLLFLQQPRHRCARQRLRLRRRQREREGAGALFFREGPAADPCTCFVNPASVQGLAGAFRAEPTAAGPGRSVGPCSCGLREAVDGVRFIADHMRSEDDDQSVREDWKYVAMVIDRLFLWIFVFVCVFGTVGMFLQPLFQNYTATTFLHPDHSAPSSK
T1 sequence (P09483 31-630): as the sequence (P09483 31-630) above
T1 sequence (P12390 25-500): as the sequence (P12390 25-500) above

For orientation: IC50 means the concentration at which inhibition is half-maximal. For orientation: melting point means the temperature, or range, at which the solid turns liquid. In the case of `COc1cncc(N2CCN(C)CC2)c1` [Compound 3A, 4-Methyl-1-(5-methoxy-3-pyridyl)-piperazine], the melting point was in the range of 67.5 to 68 °C. For the same compound, the IC50 in data set [1] came out at 68 nM. In addition, the IC50 in data set [2] (setting [5]) stood at 380 nM. Besides, 32500 nM corresponded to half-maximal inhibition in data set [3] (IC50).
Take `Clc1ccc(C2CC3CCC2N3)cn1` (centres unmarked) [Epibatidine]: in data set [4], the “analgesic potency, times that of morphine” value was about 500 times.
With `CN1CCCN(c2cncc(-c3ccccc3)c2)CC1` [Compound 5E, 4-Methyl-1-(5-phenyl-3-pyridyl)-homopiperazine], the values for the IC50 in data set [1] (setting [6]), in data set [2] and in data set [3] were 200 nM, 1500 nM and 16000 nM, respectively.
As for `CCOc1cncc(N2CCCN(C)CC2)c1` [Compound 4E, 1-(5-Ethoxy-3-pyridyl)-4-methyl-homopiperazine], the IC50 is 50 nM in data set [1], 300 nM in data set [2] (setting [5]) and over 30000 nM in data set [3].
Turning to `FC(F)(F)c1cncc(N2CCCNCC2)c1` [Compound 6K, 1-(5-Triflouromethyl-3-pyridyl)-homopiperazine], the IC50 in data set [1] (setting [6]) was 9 nM; in data set [2] (setting [5]) it was 40 nM; in data set [3] (read-out: 3H-α-bungarotoxin IC50), 6400 nM.
As to `CCCCCCOc1cncc(N2CCCN(C)CC2)c1` [Compound 11E, 1-(5-Hexyloxy-3-pyridyl)-4-methyl-homopiperazine], the IC50 in data set [1] (setting [6]) was 800 nM; in data set [2], 250 nM; in data set [3], over 30000 nM.
As to `CN1CCN(c2cncc(Cl)c2)CC1` [Compound 5A, 1-(5-Chloro-3-pyridyl)-4-Methyl-piperazine], the figures for the IC50 in data set [1], in data set [2] and in data set [3] were 80 nM, 650 nM and 73400 nM, respectively.
On to `c1ncc(N2CCCNCC2)cc1OCC1CC1` [Compound 9H, 1-(5-Cyclopropylmethoxy-3-pyridyl)-homopiperazine], for which the IC50 is 1 nM in data set [1], 6 nM in data set [2] and over 30000 nM in data set [3].
Take `CCOc1cncc(N2CCNCC2)c1` [Compound 1D, 1-(5-Ethoxy-3-pyridyl)piperazine]: the figures for the IC50 in data set [1] (setting [6]), in data set [2] and in data set [3] were 500 nM, 1000 nM and over 30000 nM, respectively.
For the compound `CCOc1cncc(N2CCN(CC)CC2)c1` [Compound 9D, 1-(5-Ethoxy-3-pyridyl)-4-ethyl-piperazine], the figures for the IC50 in data set [1], in data set [2] and in data set [3] were 70 nM, 210 nM and over 30000 nM, respectively.
For the compound `CN1CCCN(c2cccnc2)CC1` [Compound 1E, 4-Methyl-1-(3-pyridyl)-homopiperazine], the IC50 in data set [1] (setting [6]) came out at 150 nM; in data set [2] it was 400 nM; in data set [3], 4600 nM.
Regarding `c1cncc(N2CCNCC2)c1` [Compound 1B, 1-(3-Pyridyl)-piperazine], the IC50 was 130 nM in data set [1] (setting [6]), 630 nM in data set [2] (setting [5]) and over 30000 nM in data set [3].
With `C/C=C/Oc1cncc(N2CCCN(C)CC2)c1` [Compound 17E, trans-4-Methyl-1-(5-propyl-1-en-oxy-3-pyridyl)-homopiperazine], the IC50 in data set [1] was 20 nM; in data set [2], 90 nM; in data set [3], over 30000 nM.
